From ChEMBL document CHEMBL1255477, “In vitro properties of BAL30072, a novel siderophore sulfactam with activity against multiresistant gram-negative bacilli” (Antimicrob Agents Chemother, 2010)
The source made the active and inactive calls.

Assays:
[1] = test system: Stenotrophomonas maltophilia; experiment: Antimicrobial activity against Stenotrophomonas maltophilia by broth dilution method; assay type: functional
Proteus vulgaris = experiment: Antimicrobial activity against Proteus vulgaris by broth dilution method; assay type: functional
Providencia rettgeri [2] = experiment: Antimicrobial activity against Providencia rettgeri by broth dilution method; assay type: functional
Pseudomonas aeruginosa [3] = experiment: Antimicrobial activity against mexAB-oprM protein and mexZ deficient Pseudomonas aeruginosa PAO267 by broth dilution method; assay type: functional
Pseudomonas aeruginosa [4] = experiment: Antimicrobial activity against oprD protein deficient Pseudomonas aeruginosa C2 by broth dilution method; assay type: functional
Klebsiella pneumoniae [5] = experiment: Antimicrobial activity against Klebsiella pneumoniae YC harboring beta-lactamase KPC-2,TEM-1and SHV-2 by broth dilution method; assay type: functional
Acinetobacter junii [6] = experiment: Antimicrobial activity against Acinetobacter junii 15218 assessed as number of passages required for MIC to rise above 4 times original MIC; assay type: functional
Pseudomonas aeruginosa [7] = experiment: Antimicrobial activity against mexAB-oprM protein and mexCD-oprJ deficient Pseudomonas aeruginosa PAO238 by broth dilution method; assay type: functional
Escherichia coli [8] = experiment: Antimicrobial activity against Escherichia coli CF102 harboring beta-lactamase TEM-3 by broth dilution method; assay type: functional
Klebsiella aerogenes = experiment: Antimicrobial activity against Enterobacter aerogenes by broth dilution method; assay type: functional
Klebsiella oxytoca = experiment: Antimicrobial activity against Klebsiella oxytoca 1028E harboring beta-lactamase K1 by broth dilution method; assay type: functional
Pseudomonas aeruginosa [9] = experiment: Antimicrobial activity against Pseudomonas aeruginosa B4 by broth dilution method; assay type: functional
Acinetobacter sp. = experiment: Antimicrobial activity against Acinetobacter sp. by broth dilution method; assay type: functional
Pseudomonas aeruginosa [10] = experiment: Antimicrobial activity against Pseudomonas aeruginosa by broth dilution method; assay type: functional
Escherichia coli [11] = experiment: Antimicrobial activity against Escherichia coli nmcA harboring beta-lactamase NMCA by broth dilution method; assay type: functional
Klebsiella pneumoniae [12] = experiment: Antimicrobial activity against Klebsiella pneumoniae 1338665 assessed as number of passages required for MIC to rise above 4 times original MIC; assay type: functional
Pseudomonas aeruginosa [13] = experiment: Antimicrobial activity against fpvA, fpvB, fptA and pirA gene deficient Pseudomonas aeruginosa 860 by broth dilution method; assay type: functional
Pseudomonas aeruginosa [14] = experiment: Antimicrobial activity against pfeA deficient Pseudomonas aeruginosa 134 by broth dilution method; assay type: functional
Escherichia coli [15] = experiment: Antimicrobial activity against Escherichia coli by broth dilution method; assay type: functional
Enterobacter cloacae [16] = experiment: Antimicrobial activity against Enterobacter cloacae S4741B assessed as number of passages required for MIC to rise above 4 times original MIC; assay type: functional
Pseudomonas aeruginosa [17] = experiment: Antimicrobial activity against Pseudomonas aeruginosa 860 assessed as appearance of colony at 4 times MIC concentration; assay type: functional
Acinetobacter baumannii [18] = experiment: Antimicrobial activity against Acinetobacter baumannii HPA74510 assessed as number of passages required for MIC to rise above 4 times original MIC; assay type: functional
Pseudomonas aeruginosa [19] = experiment: Antimicrobial activity against Pseudomonas aeruginosa HPA101-1477 harboring beta-lactamase IMP-1 by broth dilution method; assay type: functional
Pseudomonas aeruginosa [20] = experiment: Antimicrobial activity against Pseudomonas aeruginosa 1937E harboring beta-lactamase PSE-4 and class C enzymes by broth dilution method; assay type: functional
Pseudomonas aeruginosa [21] = experiment: Antimicrobial activity against Pseudomonas aeruginosa BA assessed as appearance of colony at 4 times MIC concentration; assay type: functional
Acinetobacter baumannii [22] = experiment: Antimicrobial activity against Acinetobacter baumannii HPA 327009 harboring beta-lactamase OXA-25 by broth dilution method; assay type: functional
Klebsiella pneumoniae [23] = experiment: Antimicrobial activity against Klebsiella pneumoniae 1357E harboring beta-lactamase TEM-10 by broth dilution method; assay type: functional
Pseudomonas aeruginosa [24] = experiment: Antimicrobial activity against Pseudomonas aeruginosa 527 assessed as number of passages required for MIC to rise above 4 times original MIC; assay type: functional
Klebsiella pneumoniae [25] = experiment: Antimicrobial activity against Klebsiella pneumoniae CRE harboring beta-lactamase KPC-2 by broth dilution method; assay type: functional
Pseudomonas aeruginosa [26] = experiment: Antimicrobial activity against Pseudomonas aeruginosa HPA996 harboring beta-lactamase VIM-2 by broth dilution method; assay type: functional
Pseudomonas aeruginosa [27] = experiment: Antimicrobial activity against Pseudomonas aeruginosa HPA10586 harboring beta-lactamase VIM-1 by broth dilution method; assay type: functional
Providencia rettgeri [28] = experiment: Antimicrobial activity against Providencia rettgeri J96 harboring beta-lactamase IMP-1 by broth dilution method; assay type: functional
Pseudomonas aeruginosa [29] = experiment: microbe, parasite or virus in culture; conditions: BA
Description: Antimicrobial activity against Pseudomonas aeruginosa BA harboring beta-lactamase Class C by broth dilution method

Proteus mirabilis = experiment: Antimicrobial activity against Proteus mirabilis by broth dilution method; assay type: functional
Serratia marcescens [30] = experiment: Antimicrobial activity against Serratia marcescens by broth dilution method; assay type: functional
Pseudomonas aeruginosa [31] = experiment: Antimicrobial activity against Pseudomonas aeruginosa BA by broth dilution method; assay type: functional
Acinetobacter junii [32] = experiment: Antimicrobial activity against Acinetobacter junii 15218 assessed as appearance of colony at 4 times MIC concentration; assay type: functional
Klebsiella pneumoniae [33] = experiment: Antimicrobial activity against Klebsiella pneumoniae 1338665 assessed as appearance of colony at 4 times MIC concentration; assay type: functional, organism-based
Acinetobacter baumannii [34] = experiment: Antimicrobial activity against Acinetobacter baumannii HPA74510 harboring beta-lactamase IMP-4 by broth dilution method; assay type: functional
Serratia marcescens [35] = experiment: Antimicrobial activity against Serratia marcescens 1T9 harboring beta-lactamase Class C by broth dilution method; assay type: functional
Enterobacter cloacae [36] = experiment: Antimicrobial activity against Enterobacter cloacae 908R harboring beta-lactamase AmpC by broth dilution method; assay type: functional
Pseudomonas aeruginosa [37] = experiment: Antimicrobial activity against Pseudomonas aeruginosa BA(C2-107) selected after 25 ug/ml of compound exposure by broth dilution method; assay type: functional
Enterobacter cloacae [38] = experiment: Microbicidal activity against Enterobacter cloacae S4741B selected after 4 times MIC compound exposure; assay type: functional
Escherichia coli [39] = experiment: Antimicrobial activity against Escherichia coli Libyien harboring beta-lactamase CMY-2 by broth dilution method; assay type: functional
Escherichia coli [40] = experiment: Antimicrobial activity against Escherichia coli K802N harboring beta-lactamase TEM-3 by broth dilution method; assay type: functional
Citrobacter freundii = experiment: Antimicrobial activity against Citrobacter freundii by broth dilution method; assay type: functional
Pseudomonas aeruginosa [41] = experiment: microbe, parasite or virus in culture; conditions: 18S/H
Description: Antimicrobial activity against Pseudomonas aeruginosa 18S/H harboring beta-lactamase Class C by broth dilution method

Enterobacter cloacae [42] = experiment: Antimicrobial activity against Enterobacter cloacae S4741B assessed as appearance of colony at 4 times MIC concentration; assay type: functional
[43] = test system: Stenotrophomonas maltophilia; experiment: Antimicrobial activity against Stenotrophomonas maltophilia B715 harboring beta-lactamase L1and L2 by broth dilution method; assay type: functional
Serratia marcescens [44] = experiment: Antimicrobial activity against Serratia marcescens S6 harboring beta-lactamase SME-1.AmpC by broth dilution method; assay type: functional
Acinetobacter baumannii [45] = experiment: Antimicrobial activity against Acinetobacter baumannii HPA 4737 harboring beta-lactamase OXA-26 by broth dilution method; assay type: functional
Enterobacter cloacae [46] = experiment: Antimicrobial activity against Enterobacter cloacae by broth dilution method; assay type: functional
[47] = test system: Stenotrophomonas maltophilia; experiment: Antimicrobial activity against Stenotrophomonas maltophilia 1AC736 assessed as number of passages required for MIC to rise above 4 times original MIC; assay type: functional
[48] = Pseudomonas aeruginosa, BA, read-out: MIC

CC1(C)[C@H](NC(=O)/C(=N\OCc2cc(=O)c(O)cn2O)c2csc(N)n2)C(=O)N1OS(=O)(=O)O (stereo in doubt)
6 passages: Activity (Acinetobacter baumannii [18])
0.125 µg/mL: MIC (Pseudomonas aeruginosa [7]) | MIC (Providencia rettgeri [28])
1 µg/mL: MIC (Escherichia coli [11]) | MIC (Pseudomonas aeruginosa [13]) | MIC (Pseudomonas aeruginosa [14]) | MIC50 (Escherichia coli [15]) | MIC (Pseudomonas aeruginosa [26]) | MIC (Pseudomonas aeruginosa [31]; [48]) | MIC (Serratia marcescens [35])
2.1 frequency: Activity (Pseudomonas aeruginosa [21]; record 2)
9 passages: Activity (Klebsiella pneumoniae [12]) | Activity (Enterobacter cloacae [16]) | Activity (Pseudomonas aeruginosa [24])
4 passages: Activity [47]
2 µg/mL: MIC90 [1] | MIC50 (Pseudomonas aeruginosa [10]) | MIC (Pseudomonas aeruginosa [19]) | MIC (Pseudomonas aeruginosa [20]) | MIC (Pseudomonas aeruginosa [27]) | MIC50 (Serratia marcescens [30]) | MIC (Pseudomonas aeruginosa [41])
8 µg/mL: MIC90 (Pseudomonas aeruginosa [10]) | MIC (Pseudomonas aeruginosa [37]) | MIC (Acinetobacter baumannii [45])
≤ 0.06 µg/mL: MIC (Proteus vulgaris) | MIC50 (Proteus vulgaris) | MIC (Providencia rettgeri [2]) | MIC50 (Providencia rettgeri [2]) | MIC90 (Providencia rettgeri [2]) | MIC (Pseudomonas aeruginosa [3]) | MIC (Klebsiella pneumoniae [25]) | MIC (Proteus mirabilis) | MIC50 (Proteus mirabilis) | MIC (Serratia marcescens [44])
> 32 µg/mL: MIC (Klebsiella pneumoniae [5]) | MIC90 (Escherichia coli [15]) | MIC (Escherichia coli [40]) | MIC90 (Enterobacter cloacae [46])
16 µg/mL: MIC90 (Klebsiella aerogenes) | MIC90 (Citrobacter freundii)
20 passages: Activity (Acinetobacter junii [6])
0.5 µg/mL: MIC50 [1] | MIC50 (Klebsiella aerogenes) | MIC (Klebsiella oxytoca) | MIC (Pseudomonas aeruginosa [9]) | MIC50 (Acinetobacter sp.) | MIC (Pseudomonas aeruginosa [29])
4 µg/mL: MIC (Escherichia coli [8]) | MIC90 (Acinetobacter sp.) | MIC (Acinetobacter baumannii [22]) | MIC (Klebsiella pneumoniae [23]) | MIC90 (Serratia marcescens [30]) | MIC (Enterobacter cloacae [36]) | MBC (Enterobacter cloacae [38]) | MIC (Escherichia coli [39]) | MIC50 (Citrobacter freundii) | MIC50 (Enterobacter cloacae [46])
0.25 µg/mL: MIC90 (Proteus vulgaris) | MIC (Pseudomonas aeruginosa [4]) | MIC90 (Proteus mirabilis) | MIC (Acinetobacter baumannii [34]) | MIC [43]
7 frequency: Activity (Pseudomonas aeruginosa [17]) | Activity (Enterobacter cloacae [42])
active: Activity (Pseudomonas aeruginosa [21]) | Activity (Acinetobacter junii [32]) | Activity (Klebsiella pneumoniae [33])

C[C@@H](O)[C@H]1C(=O)N2C(C(=O)O)=C(S[C@@H]3CN[C@H](C(=O)N(C)C)C3)[C@H](C)[C@H]12 [MEROPENEM]
1 µg/mL: MIC (Pseudomonas aeruginosa [4]) | MIC50 (Acinetobacter sp.) | MIC (Pseudomonas aeruginosa [13]) | MIC (Pseudomonas aeruginosa [14]) | MIC (Pseudomonas aeruginosa [20]) | MIC (Pseudomonas aeruginosa [29]) | MIC (Pseudomonas aeruginosa [31]) | MIC (Pseudomonas aeruginosa [31]; [48])
inactive: Activity (Klebsiella pneumoniae [12]) | Activity (Acinetobacter baumannii [18]) | Activity (Klebsiella pneumoniae [33]) | Activity [47]
32 µg/mL: MIC (Pseudomonas aeruginosa [26]) | MIC (Acinetobacter baumannii [34]) | MIC (Serratia marcescens [44])
> 32 µg/mL: MIC90 [1] | MIC90 (Providencia rettgeri [2]) | MIC (Klebsiella pneumoniae [5]) | MIC90 (Acinetobacter sp.) | MIC90 (Pseudomonas aeruginosa [10]) | MIC (Escherichia coli [11]) | MIC (Pseudomonas aeruginosa [19]) | MIC (Acinetobacter baumannii [22]) | MIC (Klebsiella pneumoniae [25]) | MIC (Pseudomonas aeruginosa [27]) | MIC (Providencia rettgeri [28]) | MIC [43] | MIC (Acinetobacter baumannii [45])
1 frequency: Activity (Pseudomonas aeruginosa [17]) | Activity (Pseudomonas aeruginosa [21])
8 µg/mL: MIC50 [1]
4 µg/mL: MIC90 (Klebsiella aerogenes) | MIC50 (Pseudomonas aeruginosa [10]) | MIC90 (Serratia marcescens [30])
0.125 µg/mL: MIC50 (Proteus vulgaris) | MIC (Pseudomonas aeruginosa [3]) | MIC (Klebsiella oxytoca) | MIC50 (Proteus mirabilis) | MIC50 (Serratia marcescens [30]) | MIC (Serratia marcescens [35]) | MIC (Enterobacter cloacae [36]) | MIC (Escherichia coli [39])
7 passages: Activity (Enterobacter cloacae [16])
active: Activity (Acinetobacter junii [32]) | Activity (Enterobacter cloacae [42])
0.25 µg/mL: MIC50 (Providencia rettgeri [2]) | MIC50 (Klebsiella aerogenes) | MBC (Enterobacter cloacae [38]) | MIC90 (Citrobacter freundii) | MIC90 (Enterobacter cloacae [46])
16 µg/mL: MIC (Escherichia coli [40])
≤ 0.06 µg/mL: MIC (Escherichia coli [8]) | MIC (Pseudomonas aeruginosa [9]) | MIC50 (Escherichia coli [15]) | MIC (Klebsiella pneumoniae [23]) | MIC (Citrobacter freundii) | MIC50 (Citrobacter freundii) | MIC (Enterobacter cloacae [46]) | MIC50 (Enterobacter cloacae [46])
3 passages: Activity (Pseudomonas aeruginosa [24])
9 passages: Activity (Acinetobacter junii [6])
2 µg/mL: MIC (Pseudomonas aeruginosa [37]) | MIC (Pseudomonas aeruginosa [41])
0.5 µg/mL: MIC90 (Proteus vulgaris) | MIC (Pseudomonas aeruginosa [7]) | MIC90 (Escherichia coli [15]) | MIC90 (Proteus mirabilis)
